Results taken from patent US20200131196A1 (Mount Tam Therapeutics, Inc., priority 2017, published 2020).
Where two headings read alike, the source gives them in different places.

How the values were obtained:
U-87 MG = assay: OncoPanel cell proliferation assay, U-87 MG; assay type: cell-based, human
Protocol: (§1) Cells were grown in RPMI 1640, 10% FBS, 2 mM L-alanyl-L-glutamine, 1 mM Na pyruvate, or a special medium. Cells were seeded into 384-well plates and incubated in a humidified atmosphere of 5% CO2 at 37° C. Compounds were added the day following cell seeding. At the same time, a time zero untreated cell plate was generated. After a 3-day incubation period, cells were fixed and stained to allow fluorescence imaging of nuclei. Compounds (1 mM stock solutions) were serially diluted in half-log steps from the highest test concentration ([…]), and assayed over 10 concentrations with a maximum assay concentration of 0.1% DMSO. Automated fluorescence microscopy was carried out using a Molecular Devices ImageXpress Micro XL high-content imager, and images were collected with a 4× objective. 16-bit TIFF images were acquired and analyzed with MetaXpress 5.1.0.41 software.
(§2) Cell proliferation was measured by the fluorescence intensity of an incorporated nuclear dye. The output is referred to as the relative cell count, where the measured nuclear intensity is transformed to percent of control (POC) using the following formula: […]
(§3) Cellular response parameters were calculated using nonlinear regression to a sigmoidal single-site dose response model:
(§4) EC50 is the test compound concentration at the curve inflection point or half the effective response (parameter C of the fitted curve solution). GI50 is the concentration needed to reduce the observed growth by half (midway between the curve maximum and the time zero value). “Cell Count Activity Area” is an estimate of the integrated area above the curve (Barretina, et al. The Cancer Cell Line Encyclopedia enables predictive modelling of anticancer drug sensitivity. Nature 483: 603-607). […] In rare instances, values <0 or >10 may be observed. […] Curve-fitting, calculations, and report generation was performed using a custom data reduction engine and MathIQ based software (AIM).

Hs 852.T = assay: OncoPanel cell proliferation assay, Hs 852.T; assay type: cell-based, human
Protocol: as §1, §2, §3, §4

TF-1 = assay: OncoPanel cell proliferation assay, TF-1; assay type: cell-based, human
Protocol: as §1, §2, §3, §4

U2OS = assay: OncoPanel cell proliferation assay, U2OS; assay type: cell-based, human
Protocol: as §1, with “Cells” for “Cells were grown in RPMI 1640, 10% FBS, 2 mM L-alanyl-L-glutamine, 1 mM Na pyruvate, or a special medium. Cells”
as §2, §3
(§5) GI50 is the concentration needed to reduce the observed growth by half (midway between the curve maximum and the time zero value). […] In rare instances, values <0 or >10 may be observed. […] Curve-fitting, calculations, and report generation was performed using a custom data reduction engine and MathIQ based software (AIM).

AsPC-1 = assay: OncoPanel cell proliferation assay, AsPC-1
Protocol: Cells were seeded into 384-well plates and incubated in a humidified atmosphere of 5% CO2 at 37° C. Compounds were added the day following cell seeding. At the same time, a time zero untreated cell plate was generated. After a 3-day incubation period, cells were fixed and stained to allow fluorescence imaging of nuclei. Compounds (1 mM stock solutions) were serially diluted in half-log steps from the highest test concentration (1 micromol), and assayed over 10 concentrations with a maximum assay concentration of 0.1% DMSO. Automated fluorescence microscopy was carried out using a Molecular Devices ImageXpress Micro XL high-content imager, and images were collected with a 4× objective. 16-bit TIFF images were acquired and analyzed with MetaXpress 5.1.0.41 software.

SK-N-AS = assay: OncoPanel cell proliferation assay, SK-N-AS; assay type: cell-based, human
Protocol: as §1, §2, §3, §4

SNU-5 = assay: OncoPanel cell proliferation assay, SNU-5; assay type: cell-based, human
Protocol: as §1, with “Cells” for “Cells were grown in RPMI 1640, 10% FBS, 2 mM L-alanyl-L-glutamine, 1 mM Na pyruvate, or a special medium. Cells”
as §2, §3, §5

[1] = Homo sapiens, read-out: Cell Count EC50
[2] = Homo sapiens, read-out: Cell Count GI50
[3] = Homo sapiens, read-out: Cell Count IC50

Structure (SMILES): CO[C@H]1C[C@@H]2CC[C@@H](C)[C@@](O)(O2)C(=O)C(=O)N2CCCC[C@H]2C(=O)O[C@H]([C@H](C)C[C@H]2C[C@H]3C[C@@H]2C[C@@H]3O)CC(=O)[C@H](C)/C=C(\C)[C@@H](O)[C@@H](OC)C(=O)[C@H](C)C[C@H](C)/C=C/C=C/C=C/1C [Formula II, C37-[(1R,2S,4R,5S)-5-hyhroxybicyclo[2.2.1]heptane] rapamycin]
- Relative cell count (%) Mean (U-87 MG; 3.17E-02 microM): 60.4%
- Relative cell count (%) Mean (U-87 MG; 3.17E-03 microM): 71.4%
- Relative cell count (%) Mean (U-87 MG; 3.18E-04 microM): 85.3%
- Relative cell count (%) Mean (U-87 MG; 3.18E-05 microM): 108.2%
- EC50 (U-87 MG; [1]): 0.996 nM
- GI50 (U-87 MG; [2]): 2.17 nM
- IC50 (U-87 MG; [3]): 34.1 nM
- Cell Count Activity Area (Hs 852.T): 0.95
- Relative cell count (%) Mean (Hs 852.T; 1.00E+00 microM): 72.0%
- Relative cell count (%) Mean (Hs 852.T; 1.00E-01 microM): 80.1%
- Relative cell count (%) Mean (Hs 852.T; 1.00E-02 microM): 91.2%
- Relative cell count (%) Mean (Hs 852.T; 1.00E-03 microM): 92.9%
- Relative cell count (%) Mean (Hs 852.T; 1.01E-04 microM): 98.7%
- Relative cell count (%) Mean (Hs 852.T; 3.16E-01 microM): 73.2%
- Relative cell count (%) Mean (Hs 852.T; 3.17E-02 microM): 82.3%
- Relative cell count (%) Mean (Hs 852.T; 3.17E-03 microM): 90.6%
- Relative cell count (%) Mean (Hs 852.T; 3.18E-04 microM): 92.8%
- Relative cell count (%) Mean (Hs 852.T; 3.18E-05 microM): 95.0%
- EC50 (Hs 852.T; [1]): > 1000 nM
- GI50 (Hs 852.T; [2]): > 1000 nM
- IC50 (Hs 852.T; [3]): > 1000 nM
- Cell Count Activity Area (TF-1): 1.08
- Relative cell count (%) Mean (TF-1; 1.00E+00 microM): 80.8%
- Relative cell count (%) Mean (TF-1; 1.00E-01 microM): 80.1%
- Relative cell count (%) Mean (TF-1; 1.00E-02 microM): 82.8%
- Relative cell count (%) Mean (TF-1; 1.00E-03 microM): 88.7%
- Relative cell count (%) Mean (TF-1; 1.01E-04 microM): 93.1%
- Relative cell count (%) Mean (TF-1; 3.16E-01 microM): 79.6%
- Relative cell count (%) Mean (TF-1; 3.17E-02 microM): 81.7%
- Relative cell count (%) Mean (TF-1; 3.17E-03 microM): 80.8%
- Relative cell count (%) Mean (TF-1; 3.18E-04 microM): 89.0%
- Relative cell count (%) Mean (TF-1; 3.18E-05 microM): 94.4%
- EC50 (TF-1; [1]): > 1000 nM
- GI50 (TF-1; [2]): > 1000 nM
- IC50 (TF-1; [3]): > 1000 nM
- Cell Count Activity Area (U2OS): 2.61
- Relative cell count (%) Mean (U2OS; 1.00E+00 microM): 49.8%
- Relative cell count (%) Mean (U2OS; 1.00E-01 microM): 51.6%
- Relative cell count (%) Mean (U2OS; 1.00E-02 microM): 66.4%
- Relative cell count (%) Mean (U2OS; 1.00E-03 microM): 78.8%
- Relative cell count (%) Mean (U2OS; 1.01E-04 microM): 98.9%
- Relative cell count (%) Mean (U2OS; 3.16E-01 microM): 47.3%
- Relative cell count (%) Mean (U2OS; 3.17E-02 microM): 56.3%
- Relative cell count (%) Mean (U2OS; 3.17E-03 microM): 81.3%
- Relative cell count (%) Mean (U2OS; 3.18E-04 microM): 98.6%
- Relative cell count (%) Mean (U2OS; 3.18E-05 microM): 92.7%
- EC50 (U2OS; [1]): 5.4 nM
- GI50 (U2OS; [2]): 35 nM
- IC50 (U2OS; [3]): 324 nM
- Cell Count Activity Area (AsPC-1; AsPC-1): 1.68
- Relative cell count (%) Mean (AsPC-1; AsPC-1, 1.00E+00 microM): 70.3%
- Relative cell count (%) Mean (AsPC-1; AsPC-1, 1.00E-01 microM): 74.4%
- Relative cell count (%) Mean (AsPC-1; AsPC-1, 1.00E-02 microM): 89.3%
- Relative cell count (%) Mean (AsPC-1; AsPC-1, 1.00E-03 microM): 90.9%
- Relative cell count (%) Mean (AsPC-1; AsPC-1, 1.01E-04 microM): 105.4%
- Relative cell count (%) Mean (AsPC-1; AsPC-1, 3.16E-01 microM): 77.3%
- Relative cell count (%) Mean (AsPC-1; AsPC-1, 3.17E-02 microM): 81.7%
- Relative cell count (%) Mean (AsPC-1; AsPC-1, 3.17E-03 microM): 90.9%
- Relative cell count (%) Mean (AsPC-1; AsPC-1, 3.18E-04 microM): 97.5%
- Relative cell count (%) Mean (AsPC-1; AsPC-1, 3.18E-05 microM): 104.0%
- EC50 (AsPC-1; Homo sapiens, ASPC1): 8.6 nM
- EC50 (AsPC-1; Homo sapiens, ASPC1, read-out: Cell Count EC50): 8.56 nM
- GI50 (AsPC-1; Homo sapiens, ASPC1, read-out: Cell Count GI50): 246 nM
- IC50 (AsPC-1; Homo sapiens, ASPC1, read-out: Cell Count IC50): > 1000 nM
- Cell Count Activity Area (SK-N-AS): 3.12
- Relative cell count (%) Mean (SK-N-AS; 1.00E+00 microM): 49.7%
- Relative cell count (%) Mean (SK-N-AS; 1.00E-01 microM): 54.0%
- Relative cell count (%) Mean (SK-N-AS; 1.00E-02 microM): 55.3%
- Relative cell count (%) Mean (SK-N-AS; 1.00E-03 microM): 77.8%
- Relative cell count (%) Mean (SK-N-AS; 1.01E-04 microM): 99.5%
- Relative cell count (%) Mean (SK-N-AS; 3.16E-01 microM): 49.5%
- Relative cell count (%) Mean (SK-N-AS; 3.17E-02 microM): 55.1%
- Relative cell count (%) Mean (SK-N-AS; 3.17E-03 microM): 70.3%
- Relative cell count (%) Mean (SK-N-AS; 3.18E-04 microM): 89.7%
- Relative cell count (%) Mean (SK-N-AS; 3.18E-05 microM): 97.7%
- EC50 (SK-N-AS; [1]): 1.41 nM
- GI50 (SK-N-AS; [2]): 4.82 nM
- IC50 (SK-N-AS; [3]): 422 nM
- Cell Count Activity Area (SNU-5): 1.85
- Relative cell count (%) Mean (SNU-5; 1.00E+00 microM): 67.1%
- Relative cell count (%) Mean (SNU-5; 1.00E-01 microM): 71.9%
- Relative cell count (%) Mean (SNU-5; 1.00E-02 microM): 82.9%
- Relative cell count (%) Mean (SNU-5; 1.00E-03 microM): 95.6%
- Relative cell count (%) Mean (SNU-5; 1.01E-04 microM): 101.2%
- Relative cell count (%) Mean (SNU-5; 3.16E-01 microM): 70.4%
- Relative cell count (%) Mean (SNU-5; 3.17E-02 microM): 76.3%
- Relative cell count (%) Mean (SNU-5; 3.17E-03 microM): 84.9%
- Relative cell count (%) Mean (SNU-5; 3.18E-04 microM): 95.6%
- Relative cell count (%) Mean (SNU-5; 3.18E-05 microM): 101.0%
- EC50 (SNU-5; [1]): 5.57 nM
- GI50 (SNU-5; [2]): 168 nM
- IC50 (SNU-5; [3]): > 1000 nM
